According to patent US10604784B2, “Method and device for antibiotic susceptibility testing based on fluctuations of electrical resistance in a microchannel” (TRUSTEES OF BOSTON UNIVERSITY, priority 2016, dated 2020):

Columns and labels:
Format in all cases: cell-based
[1] = test system: S. epidermidis; assay: Mean resistance based susceptibility test in the microchannel (bacterial growth); conditions: broth/Vancomycin mixture, vancomycin 4 μg/ml, t=0 to 4 hrs
Procedure: After the bacteria are trapped, for the Mean Resistance based Susceptibility Test 410, at 412, the baseline mean (average or time-averaged measured resistance through the channel) resistance can be measured for a predefined period of time. The baseline mean can be determined as a function (e.g., the average or time-average) of the measured resistance through the channel for two or more points in time. After the baseline mean resistance is determined, at 414, the antibiotic is added to the solution, either via one of the reservoirs 110 or directly to the microchannel 120 and, at 416, the solution containing the bacteria and the antibiotic is allowed to incubate for a predefined period of time (e.g., 1-3 hours, although shorter or longer periods can be used). After the expiration of a predefined period of time, at 418, the mean resistance is determined (e.g., as a function of the measured resistance through the channel for two or more points in time) and, at 420, the mean resistance is compared to the baseline mean resistance. […]
In the experiment shown in FIGS. 14, 15 and 16, the susceptibility of S. epidermidis to Vancomycin was tested using the mean resistance based approach shown in the flowchart in FIG. 4. As discussed above, S. epidermidis is non-motile and readily settles in the microchannel. […]

[2] = test system: susceptible E. coli strain; assay: Electrical fluctuation based susceptibility test of immobilized bacteria in human urine/broth, susceptible strain; conditions: about 50 bacteria, urine/broth/antibiotic mixture, antibiotic concentration above MIC, FIG. 13A/13C
Procedure: (§1) After the bacteria are trapped, for the Electrical Fluctuation based Susceptibility Test 430, at 432, the system measures the fluctuations of the electrical signals (e.g., voltage or current) to determine a baseline RMS signal level (e.g., the RMS level determined as function of the measured signal fluctuations). Next, at 434, the antibiotic is added to the solution, either via one of the reservoirs 110 or directly to the microchannel 120. Next, at 436, the (RMS) fluctuations of the electrical signal (e.g., voltage or current) are measured again and an RMS level can be determined as a function of the measured signal fluctuations, and, at 440, the RMS level of the fluctuations of the electrical signal can be compared to the baseline RMS signal level. If the RMS level of the fluctuations of the electrical signal is greater than the baseline signal RMS level, then the bacteria can be considered resistant to the antibiotic at 442. If the RMS level of the fluctuations of the electrical signal is not greater than the baseline RMS signal level, the bacteria can be considered susceptible to attack by the antibiotic at 444.
(§2) FIGS. 13A, 13B, and 13C show the results of antibiotic susceptibility studies in human urine. In this example, two strains of E. coli are used, with one being resistant to the administered antibiotic, nalidixic acid. […]

[3] = test system: resistant E. coli strain; assay: Electrical fluctuation based susceptibility test of immobilized bacteria in human urine/broth, resistant strain; conditions: about 50 bacteria, urine/broth/antibiotic mixture, antibiotic concentration above MIC, FIG. 13B/13C
Procedure: as §1, §2

| Compound | population size of bacteria in the antibiotic solution [1] | mean resistance value (change over time) ([1]; FIG. 16) | voltage fluctuations (RMS amplitude) over time after antibiotic is administered [2] | voltage fluctuations (RMS amplitude) over time after antibiotic is administered [3] |
| --- | --- | --- | --- | --- |
| CN[C@H](CC(C)C)C(=O)N[C@H]1C(=O)N[C@@H](CC(N)=O)C(=O)N[C@H]2C(=O)N[C@H]3C(=O)N[C@H](C(=O)N[C@H](C(=O)O)c4cc(O)cc(O)c4-c4cc3ccc4O)[C@H](O)c3ccc(c(Cl)c3)Oc3cc2cc(c3O[C@@H]2O[C@H](CO)[C@@H](O)[C@H](O)[C@H]2O[C@H]2C[C@](C)(N)[C@H](O)[C@H](C)O2)Oc2ccc(cc2Cl)[C@H]1O [Vancomycin] | the population size stays the same | does not change noticeably | – | – |
| CCn1cc(C(=O)O)c(=O)c2ccc(C)nc21 [nalidixic acid] | – | – | decay rather quickly | do not show significant changes over time |
